≈ marks a conversion by molar mass, not a printed value. Like-named read-outs stand apart in the source and are kept apart here.
Key:
[1] = system: M. tuberculosis H37Rv; assay: Minimum lethal concentration (MLC); assay type: cell-based; conditions: Mycobacterium tuberculosis, NA = no activity, read-out: MLC against M. tuberculosis H37Rv
[2] = system: S. typhi; assay: Tube dilution MIC; assay type: cell-based; conditions: Salmonella enterica, 24 h, read-out: MIC S. typhi
[3] = system: B. subtilis; assay: MBC by subculturing; assay type: cell-based
Experimental: (§1) The minimum bactericidal concentration (MBC) and minimum fungicidal concentration (MFC) of the synthesized benzimidazole derivatives was determined by subculturing 100 µl of culture from each tube that remained clear in MIC determination onto sterilized petri-plates containing fresh agar medium. The petri-plates were incubated and analyzed for microbial growth visually.

[4] = system: S. typhi; assay: MBC by subculturing; assay type: cell-based; conditions: Salmonella enterica, read-out: MBC S. typhi
Experimental: as §1

[5] = system: S. aureus; assay: MBC by subculturing; assay type: cell-based; conditions: Staphylococcus aureus
Experimental: as §1

[6] = system: E. coli; assay: MBC by subculturing; assay type: cell-based; conditions: Escherichia coli
Experimental: as §1

[7] = system: B. cereus; assay: MBC by subculturing; assay type: cell-based
Experimental: as §1

[8] = system: A. niger; assay: MFC by subculturing; assay type: cell-based
Experimental: as §1

[9] = system: C. albicans; assay: MFC by subculturing; assay type: cell-based
Experimental: as §1

[10] = system: B. cereus; assay: Tube dilution MIC; conditions: Bacillus cereus, 24 h, read-out: MIC B. cereus
[11] = system: S. aureus; assay: Tube dilution MIC; conditions: Staphylococcus aureus, 24 h, read-out: MIC S. aureus
[12] = In vivo LD50, ED50 and toxic dose in mice models; conditions: mouse, dose that killed 50% of the mice population within the group
Experimental: The LD50 and ED50 were determined for the active compounds in mice models infected with Mycobacterium H37Rv (Table 4). […] Thus, ED50 of 1.34 mg/kg was considered safe for each of the compounds. It was observed that this dose was effective and safe for mice in different groups before infecting the mice models with specific TB bacteria as no mortality of any single animal was recorded.
The LD50 (lethal dose) and ED50 (optimum/effective dose) doses were determined for the active compounds in mice models infected with Mycobacterium H37Rv via ethical permission no., NCFT/EC/16/2313 assigned to Collaborative Research Group (CRG), NCFT, New Delhi, India.

[13] = system: B. subtilis; assay: Tube dilution MIC; conditions: Bacillus subtilis, 24 h, read-out: MIC B. subtilis
[14] = system: C. albicans; assay: microbe, parasite or virus in culture; conditions: Candida albicans, 48 h, read-out: MIC C. albicans
[15] = system: A. niger; assay: microbe, parasite or virus in culture; conditions: Aspergillus niger, 168 h, read-out: MIC A. niger
[16] = target: mycobacterial isocitrate lyase (Mycobacterium tuberculosis, UniProt P9WKK7); assay: Mycobacterial isocitrate lyase (ICL) assay; assay type: biochemical, M. tuberculosis H37Rv; conditions: read-out: Percent inhibition of enzyme, M. ICL activity
Chain of mycobacterial isocitrate lyase (P9WKK7 whole entry): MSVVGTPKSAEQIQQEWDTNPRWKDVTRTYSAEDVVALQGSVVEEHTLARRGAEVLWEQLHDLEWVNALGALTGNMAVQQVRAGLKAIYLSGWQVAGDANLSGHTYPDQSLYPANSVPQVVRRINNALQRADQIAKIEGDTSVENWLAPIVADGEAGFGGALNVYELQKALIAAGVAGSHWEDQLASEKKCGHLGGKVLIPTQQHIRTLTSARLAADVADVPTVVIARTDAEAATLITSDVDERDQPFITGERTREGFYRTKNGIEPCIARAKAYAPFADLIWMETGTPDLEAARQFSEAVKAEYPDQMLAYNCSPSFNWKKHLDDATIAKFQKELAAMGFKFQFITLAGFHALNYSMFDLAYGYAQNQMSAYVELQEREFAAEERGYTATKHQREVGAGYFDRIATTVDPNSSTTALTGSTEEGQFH
Experimental: The compounds found potent in in vivo evaluation were assayed for inhibition of mycobacterial enzymes viz., isocitrate lyase, pantothenate synthetase and chorismate mutase.
Isocitrate lyase activity was assayed according to the protocol reported by Dixon and Kornberg (glyoxylate phenyl hydrazone formation) at 10 μM of the compounds.

[17] = system: E. coli; assay: Tube dilution MIC; conditions: Escherichia coli, 24 h, read-out: MIC E. coli
[18] = system: M. tuberculosis H37Rv (NCFT/TB/537); assay: Well diffusion susceptibility test (zone of inhibition); assay type: cell-based; conditions: Mycobacterium tuberculosis, 672 h, read-out: Diameter of zone of inhibition against H37Rv (NCFT/TB/537), wells of 8 mm, 50 µg/ml test compound, 25 µg/ml standard drug, 4 weeks, NA = no activity
[19] = system: M. tuberculosis H37Rv; assay: MIC by microplate alamar blue assay; assay type: cell-based; conditions: Mycobacterium tuberculosis, NA = no activity, read-out: MIC against M. tuberculosis H37Rv
[20] = system: HCT116 (human colorectal) cell line; assay: Sulforhodamine-B (SRB) cytotoxicity assay; assay type: cell-based
[21] = system: MCF7 (human breast cancer) cell line; assay: Sulforhodamine-B (SRB) cytotoxicity assay; assay type: cell-based
[22] = Bacillus subtilis, read-out: MBC B. subtilis
[23] = Bacillus cereus, read-out: MBC B. cereus
[24] = Aspergillus niger, read-out: MFC A. niger
[25] = Candida albicans, read-out: MFC C. albicans

Compound	MBC [1]	MIC [2]	MBC [3, 22]	MBC [4]	MBC [5]	MBC [6]	MBC [7, 23]	MFC [8, 24]	MFC [9, 25]	MIC [10]	MIC [11]	LD50 [12]	MIC [13]	MIC [14]	MIC [15]	inhibition at 10 µM [16]	MIC [17]	zone of inhibition at 50 µg/mL [18]	MIC [19]	other results
COc1ccccc1NC(=O)CSc1nc2ccccc2n1C(=O)c1ccccc1 [Compound 17, 2-(1-Benzoyl-1H-benzo[d]imidazol-2-ylthio)-N-(2-methoxyphenyl)acetamide]	25 µg/mL (≈ 59.9 µM)	30 µM (≈ 12.5 µg/mL)	> 50 µg/mL	> 50 µg/mL	50 µg/mL (≈ 120 µM)	> 50 µg/mL	> 50 µg/mL	> 50 µg/mL	50 µg/mL (≈ 120 µM)	30 µM (≈ 12.5 µg/mL)	30 µM (≈ 12.5 µg/mL)	3.17 mg/kg	30 µM (≈ 12.5 µg/mL)	15 µM (≈ 6.26 µg/mL)	30 µM (≈ 12.5 µg/mL)	43.5%	30 µM (≈ 12.5 µg/mL)	> 20 mm	12.5 µg/mL (≈ 29.9 µM)	
O=C(CSc1nc2ccccc2n1C(=O)c1ccccc1)Nc1cccc([N+](=O)[O-])c1 [Compound 10, 2-(1-Benzoyl-1H-benzo[d]imidazol-2-ylthio)-N-(3-nitrophenyl)acetamide]	25 µg/mL (≈ 57.8 µM)	29 µM (≈ 12.5 µg/mL)	50 µg/mL (≈ 116 µM)	50 µg/mL (≈ 116 µM)	50 µg/mL (≈ 116 µM)	> 50 µg/mL	> 50 µg/mL	> 50 µg/mL	> 50 µg/mL	29 µM (≈ 12.5 µg/mL)	29 µM (≈ 12.5 µg/mL)	1.83 mg/kg	29 µM (≈ 12.5 µg/mL)	15 µM (≈ 6.49 µg/mL)	29 µM (≈ 12.5 µg/mL)	61.2%	29 µM (≈ 12.5 µg/mL)	> 20 mm	12.5 µg/mL (≈ 28.9 µM)	IC50 ([20]; HCT-116, read-out: IC50 HCT116): 5.8 µM; IC50 ([21]; MCF7, read-out: IC50 MCF7): 78.6 µM
O=C(CSc1nc2ccccc2n1C(=O)c1ccccc1)Nc1ccccc1F [Compound 2, 2-(1-Benzoyl-1H-benzo[d]imidazol-2-ylthio)-N-(2-fluorophenyl)acetamide]	25 µg/mL (≈ 61.7 µM)	31 µM (≈ 12.6 µg/mL)	50 µg/mL (≈ 123 µM)	50 µg/mL (≈ 123 µM)	> 50 µg/mL	50 µg/mL (≈ 123 µM)	> 50 µg/mL	> 50 µg/mL	50 µg/mL (≈ 123 µM)	31 µM (≈ 12.6 µg/mL)	31 µM (≈ 12.6 µg/mL)	1.81 mg/kg	31 µM (≈ 12.6 µg/mL)	15 µM (≈ 6.08 µg/mL)	31 µM (≈ 12.6 µg/mL)	58.8%	31 µM (≈ 12.6 µg/mL)	> 20 mm	12.5 µg/mL (≈ 30.8 µM)	IC50 ([20]; HCT-116, read-out: IC50 HCT116): 83.9 µM; IC50 ([21]; MCF7, read-out: IC50 MCF7): 4.7 µM
OC(Cn1cncn1)(Cn1cncn1)c1ccc(F)cc1F [Fluconazole, reference compound]														470 µM (≈ 144 µg/mL)	470 µM (≈ 144 µg/mL)					
[H]/N=C(/N)N[C@H]1[C@H](O)[C@@H](O)[C@H](O[C@@H]2O[C@@H](C)[C@](O)(C=O)[C@H]2O[C@@H]2O[C@@H](CO)[C@H](O)[C@@H](O)[C@@H]2NC)[C@@H](N/C(N)=N\[H])[C@@H]1O [Streptomycin, reference compound]	25 µg/mL (≈ 43 µM)																	> 20 mm	12.5 µg/mL (≈ 21.5 µM)	
[H]/N=C(/N)N[C@H]1[C@H](O)[C@@H](O)[C@H](O[C@@H]2O[C@@H](C)[C@](O)(C=O)[C@H]2O[C@@H]2O[C@@H](CO)[C@H](O)[C@@H](O)[C@@H]2NC)[C@@H](N/C(N)=N\[H])[C@@H]1O [Streptomycin sulphate, streptomycin sulphate, reference compound]																75.1%				
COc1cccc(NC(=O)CSc2nc3ccccc3n2C(=O)c2ccccc2)c1 [Compound 14, 2-(1-Benzoyl-1H-benzo[d]imidazol-2-ylthio)-N-(3-methoxyphenyl)acetamide]		30 µM (≈ 12.5 µg/mL)		> 50 µg/mL	> 50 µg/mL	50 µg/mL (≈ 120 µM)				30 µM (≈ 12.5 µg/mL)	30 µM (≈ 12.5 µg/mL)		30 µM (≈ 12.5 µg/mL)	30 µM (≈ 12.5 µg/mL)	30 µM (≈ 12.5 µg/mL)		30 µM (≈ 12.5 µg/mL)			IC50 ([20]; HCT-116, SRB assay, HCT116 cell line, read-out: IC50 HCT116): 95.8 µM; IC50 ([21]; SRB assay, MCF7 cell line, read-out: IC50 MCF7): 95.8 µM; MBC ([3]; Bacillus subtilis; read-out: MBC B. subtilis): > 50 µg/mL; MBC ([7]; Bacillus cereus; read-out: MBC B. cereus): > 50 µg/mL; MFC ([8]; Aspergillus niger; read-out: MFC A. niger): > 50 µg/mL; MFC ([9]; Candida albicans; read-out: MFC C. albicans): 50 µg/mL (≈ 120 µM)
